The compounds below were run against PI 3-kinase alpha (Homo sapiens (Human), UniProt P42336) (assay: Cellular p-Akt (S473) SureFire assay, Rat-1_PI3Kalpha cells (Assay H)). Details: p-AKT (Ser473) in Rat-1 cells expressing myr-HA-hp110 alpha, 1 h compound; read-out: Assay H PI3Kα IC50.
Type: cell-based
Text: Cellular Assays for PI 3-Kinase Alpha (H), Beta (I) and Delta (J)
AlphaScreen (Amplified Luminescent Proximity Homogeneous Assay, ALPHA, Perkin Elmer) is a non-radioactive bead-based proximity assay technology to study biomolecular interactions in a homogenous microtiter plate format. The brand name SureFire denotes AlphaScreen assays that are adapted to quantify the phosphorylation of endogenous cellular proteins in cell lysates, by using matched antibody pairs, which consist of an anti-phospho-kinase and an anti-kinase antibody. The assay allows characterization of kinase signaling in cells as well as measurement of kinase inhibitor effects.
Rat-1 cell lines stably overexpressing activated PI 3-kinase class I isoforms Rat-1 pBABEpuro Myr-HA-hp110 delta clone 5 (Rat-1_PI3Kdelta) and Rat-1 pBABEpuro Myr-HA-hp110 alpha clone 6 (Rat-1_PI3Kalpha) and Rat-1 pBABEpuro Myr-HA-hp110 beta (Rat-1_PI3beta) were cultivated in complete growth medium (DMEM high glucose, 10% (v/v) fetal bovine serum, 1% (v/v) MEM NEAA, 10 mM HEPES, 2 mM L-glutamine, puromycin (10 μg/mL for Rat-1_PI3Kdelta and Rat-1_PI3Kalpha, 4 ug/mL for Rat-1_PI3beta), 1% (v/v) Pen/Strep) to 90% confluency at 37° C./5% CO2/90% humidity in a humidified CO2 incubator and were split twice a week. The following materials were used for p-AKT(5473) detection in Rat-1 cell lysates: Dulbecco's modified Eagle's medium (DMEM) high glucose (Gibco Invitrogen, Basel, Switzerland, Cat. No. 41965), heat inactivated fetal bovine serum, qualified (HI FBS; Gibco Invitrogen, Basel, Switzerland, Lot. No. 16140), MEM non essential amino acids (NEAA; Gibco Invitrogen, Basel, Switzerland, Cat. No. 11140), HEPES (Gibco Invitrogen, Basel, Switzerland, Cat. No. 15630), penicillin/streptomycin (Pen/Strep, 100×; Gibco Invitrogen, Basel, Switzerland, Cat. No. 15140-122), L-glutamine (Gibco Invitrogen, Basel, Switzerland, Cat. No. 25030), puromycin (Sigma Aldrich, Buchs, Switzerland, Cat. No. P9620), DMSO (MERCK, Dietikon, Switzerland, Cat. No. 8.02912.2500), H2O, MilliQ-H2O unless otherwise stated (MILLIPORE QGARDOOR1, Millipore, Zug, Switzerland), bovine serum albumine (BSA; Sigma Aldrich, Buchs, Switzerland Cat. No. A8412), SureFire p-Akt 1/2 (Ser473) Assay Kit (Perkin Elmer, Schwerzenbach, Switzerland, Cat. No. TGRAS50K).
The p-Akt (S473) SureFire assay measures the phosphorylation of endogenous cellular Akt 1/2 at Ser473 in cell lysates. Using Rat-1 cells stably expressing myr-HA-tagged versions of the human PI3Kdelta, PI3Kalpha, or PI3Kbeta p110 catalytic subunit isoforms, the assay was developed as a two-plate protocol in a 384-well format.
For compound testing, the cells were seeded at a density of 4000 (Rat-1_PI3Kdelta), 7500 (Rat-1_PI3Kalpha), or 6200 (Rat-1_PI3Kbeta) cells in 20 μl complete growth medium into cell culture treated 384-well plates and were grown at 37° C./5% CO2/90% humidity for 24 h. Shortly before compound transfer, the complete medium was removed, 30 μl assay buffer (DMEM high glucose, 1×MEM NEAA, 10 mM HEPES, 2 mM L-glutamine, 0.1% (w/v) BSA) was added and 10 μl of the compound predilutions were transferred to the cells. After treatment with compound for 1 h, the cells were lysed by the addition of 20 μl lysis buffer supplemented with 0.24% (w/v) BSA. Detection of p-AKT (Ser473) was performed with the SureFire p-Akt 1/2 (Ser473) Assay Kit according to the manufacturer's instructions using 5 ul of cell lysate in a total detection volume of 12 μl.
IC50 values of the percentage inhibition of each compound at 8 concentrations (usually 10, 3.0, 1.0, 0.3, 0.1, 0.030, 0.010 and 0.003 μM) n=2 were derived by fitting a sigmoidal dose-response curve to a plot of assay readout over inhibitor concentration as described. All fits were performed with the program XLfit4 (ID Business Solutions, Guildford, UK).

PI 3-kinase alpha, sequence (P42336 whole entry): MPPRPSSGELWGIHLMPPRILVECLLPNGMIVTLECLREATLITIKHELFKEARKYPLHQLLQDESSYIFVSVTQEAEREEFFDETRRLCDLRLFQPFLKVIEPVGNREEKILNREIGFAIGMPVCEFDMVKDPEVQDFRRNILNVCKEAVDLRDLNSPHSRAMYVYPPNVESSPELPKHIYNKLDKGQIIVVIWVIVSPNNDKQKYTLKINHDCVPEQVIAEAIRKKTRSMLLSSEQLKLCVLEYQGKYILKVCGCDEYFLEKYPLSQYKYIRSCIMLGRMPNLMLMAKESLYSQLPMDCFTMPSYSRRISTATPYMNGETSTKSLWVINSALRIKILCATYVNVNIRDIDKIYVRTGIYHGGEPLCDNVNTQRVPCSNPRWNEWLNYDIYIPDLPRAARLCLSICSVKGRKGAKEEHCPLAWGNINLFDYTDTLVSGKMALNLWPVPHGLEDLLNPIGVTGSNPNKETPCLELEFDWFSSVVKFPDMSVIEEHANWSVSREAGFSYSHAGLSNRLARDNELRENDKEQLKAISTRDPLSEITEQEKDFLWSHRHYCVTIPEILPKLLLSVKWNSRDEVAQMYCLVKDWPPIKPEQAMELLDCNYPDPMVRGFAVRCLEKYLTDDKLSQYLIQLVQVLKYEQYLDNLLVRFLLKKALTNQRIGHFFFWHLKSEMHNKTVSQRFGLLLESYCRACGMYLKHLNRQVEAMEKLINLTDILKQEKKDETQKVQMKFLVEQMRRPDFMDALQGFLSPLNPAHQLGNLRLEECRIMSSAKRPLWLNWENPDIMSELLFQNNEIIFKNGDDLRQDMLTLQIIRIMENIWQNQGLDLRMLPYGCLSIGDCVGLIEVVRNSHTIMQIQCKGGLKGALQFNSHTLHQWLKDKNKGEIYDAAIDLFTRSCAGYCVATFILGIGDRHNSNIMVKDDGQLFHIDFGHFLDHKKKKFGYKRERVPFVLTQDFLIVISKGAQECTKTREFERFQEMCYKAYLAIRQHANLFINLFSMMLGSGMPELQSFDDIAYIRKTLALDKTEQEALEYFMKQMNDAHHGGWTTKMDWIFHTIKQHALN
PI 3-kinase alpha, sequence (Q63787 whole entry partner): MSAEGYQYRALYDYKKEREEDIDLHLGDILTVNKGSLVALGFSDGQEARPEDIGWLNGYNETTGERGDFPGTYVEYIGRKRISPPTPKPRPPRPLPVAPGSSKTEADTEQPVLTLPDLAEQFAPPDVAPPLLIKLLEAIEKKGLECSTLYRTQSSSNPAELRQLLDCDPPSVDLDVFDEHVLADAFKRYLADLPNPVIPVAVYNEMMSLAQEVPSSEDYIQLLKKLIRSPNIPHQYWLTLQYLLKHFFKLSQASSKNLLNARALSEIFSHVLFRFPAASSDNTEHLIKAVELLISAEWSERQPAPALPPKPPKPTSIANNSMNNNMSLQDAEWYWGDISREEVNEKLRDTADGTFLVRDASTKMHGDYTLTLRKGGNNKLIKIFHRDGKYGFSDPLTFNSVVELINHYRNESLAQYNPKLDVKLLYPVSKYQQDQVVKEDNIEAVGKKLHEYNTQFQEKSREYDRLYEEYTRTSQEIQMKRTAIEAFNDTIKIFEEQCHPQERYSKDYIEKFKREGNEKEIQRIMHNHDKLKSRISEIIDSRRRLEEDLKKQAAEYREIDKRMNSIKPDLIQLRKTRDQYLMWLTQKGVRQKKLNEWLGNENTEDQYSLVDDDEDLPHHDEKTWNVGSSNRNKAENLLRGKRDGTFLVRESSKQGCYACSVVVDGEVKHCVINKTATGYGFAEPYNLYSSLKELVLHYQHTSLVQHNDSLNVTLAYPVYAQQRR

| Structure (SMILES) | IC50 [nM] |
| --- | --- |
| Cc1ccc(S(=O)(=O)NCC(C)(C)O)cc1-c1cncc(-c2cn(C)nc2C)n1 [Example 2, 3-[6-(1,3-Dimethyl-1H-pyrazol-4-yl)-pyrazin-2-yl]-N-(2-hydroxy-2-methyl-propyl)-4-methyl-benzenesulfonamide] | 450 |
| Cc1ccc(S(=O)(=O)NCCC(C)(C)O)cc1-c1cncc(-c2cn(C)nc2C)n1 [Example 3, 3-[6-(1,3-Dimethyl-1H-pyrazol-4-yl)-pyrazin-2-yl]-N-(3-hydroxy-3-methyl-butyl)-4-methyl-benzenesulfonamide] | 1020 |
| Cc1ccc(S(=O)(=O)NCC2(C)COC2)cc1-c1cncc(-c2cn(C)nc2C)n1 [Example 4, Trans 3-[6-(1,3-Dimethyl-1H-pyrazol-4-yl)-pyrazin-2-yl]-4-methyl-N-(3-methyl-oxetan-3-ylmethyl)-benzenesulfonamide] | 293 |
| Cc1ncc(-c2cncc(-c3cc(S(=O)(=O)N[C@H]4CC[C@H](O)CC4)ccc3C)n2)s1 [Example 5, Trans N-(4-Hydroxycyclohexyl)-4-methyl-3-(6-(2-methylthiazol-5-yl)pyrazin-2-yl)benzenesulfonamide] | 838 |

Continued, values first:

| IC50 [nM] | Structure (SMILES) |
| --- | --- |
| 2480 | Cc1ccc(S(=O)(=O)NCCC(C)(C)O)cc1-c1cncc(-c2cnn(CCN3CCOCC3)c2)n1 [Example 9, N-(3-Hydroxy-3-methyl-butyl)-4-methyl-3-{6-[1-(2-morpholin-4-yl-ethyl)-1H-pyrazol-4-yl]-pyrazin-2-yl}-benzenesulfonamide] |
| 3090 | Cc1ccc(S(=O)(=O)NCCC(C)(C)O)cc1-c1cncc(-c2cn(CCN3CCOCC3)nc2C)n1 [Example 10, N-(3-Hydroxy-3-methyl-butyl)-4-methyl-3-{6-[3-methyl-1-(2-morpholin-4-yl-ethyl)-1H-pyrazol-4-yl]-pyrazin-2-yl}-benzenesulfonamide] |
| 1700 | Cc1ccc(S(=O)(=O)N[C@H]2CC[C@H](O)CC2)cc1-c1cncc(-c2cccnc2)n1 [Example 11, Trans N-(4-Hydroxy-cyclohexyl)-4-methyl-3-(6-pyridin-3-yl-pyrazin-2-yl)-benzenesulfonamide] |
